US12357696B2, “Preserved etherified cyclodextrin derivatives containing liquid aqueous pharmaceutical composition” (Boehringer Ingelheim Vetmedica GmbH, priority 2013, dated 2025)
One block for each molecule: values may come before it.

Assays:
[1] = type: physicochemical
Protocol: As already described in EP 0 439 030 and WO 2005/08467, pimobendan drug substance is insoluble in water: 1 g drug substance is soluble in more than 10,000 mL. At pH 7 the solubility of pimobendan is only about 0.1 mg per 100 mL.
The solubility of pimobendan in aqueous solutions is depends on the pH. […] However, the local tolerance and palatability as well as the chemical stability of such a formulation are not acceptable. This is due to the fact that the target dose would require a drug concentration in solution which can only be achieved by a pH of about pH 2.5 and lower. […] Accordingly, a pimobendan formulation comprising up to 1.5 mg/mL of pimobendan would need an increase in solubility at pH 7 by a factor of about 1000 to 1500, not achieved in prior art formulations for oral administration up to now.

[2] = cited from earlier work
[3] = Solubility of pimobendan in cyclodextrin solutions (FIG. 1-3); type: physicochemical
Protocol: The last row of columns represents the reference control, which is the respective solution without preservative (“none”). […] FIG. 2 is a schematic diagram wherein the solubility of pimobendan is shown as a function of type and concentration of polymer, salt or complexation agent. In order to determine the degree of complexation, the effect of three different polymers, three different salts and one chelating agent on the solubility of pimobendan was tested. The pH of the solution was 4.5. Metolose is hydroxypropyl methylcellulose=HPMC=Hypromellose. Klucel ELF is hydroxypropyl cellulose=HPC. The number after the chemical name indicates the concentration of additive in % (m/V). FIG. 3 is a schematic diagram wherein the solubility of pimobendan is shown as a function of concentration of hydroxypropyl-ß-cyclodextrin and presence of sodium sorbate and hydroxypropyl methylcellulose (HPMC). Therefore, in FIG. 3 the effect of sodium sorbate and HPMC on the solubility of pimobendan was illustrated, and also the effect of concentration of hydroxypropyl-ß-cyclodextrin on the pimobendan solubility. Concentrations of sodium sorbate of 1.0% (m/V) and of HPMC of 0.1% (m/V) were used. The pH value was set to 4.5 using hydrochloric acid in all solutions.

[4] = test system: Zygosaccharomyces rouxii, Candida albicans and Aspergillus brasiliensis; assay: Efficacy of microbial preservation, Example 4, overall; type: cell-based; settings: ascorbic acid 0.20-0.70 g/100 mL with sorbic acid 0.3 g/100 mL, pH 3.5
[5] = test system: E. coli, P. aeruginosa, S. aureus, C. albicans, A. brasiliensis; assay: Antimicrobial efficacy, Example 3, overall evaluation of Tables 6 and 7; type: cell-based; settings: solutions of Table 4
Text: The testing criteria applied are those for evaluation of antimicrobial activity for oral preparations according to Pharm. Eur. 7 (tests at 14 days and 28 days). The acceptance criteria of the Ph. Eur. 7, Method 5.1.3 “Efficacy of Antimicrobial Preservation” USP 34, and Method <51> Antimicrobial Effectiveness Testing are listed in the following Table 2.

- solubility of pimobendan in presence of HPMC (FIG. 3) ([3]; HPMC 0.1% (m/V), hydroxypropyl-ß-cyclodextrin, pH 4.5): significantly increases
- solubility of pimobendan on addition of HPMC (FIG. 2) ([3]; pH 4.5): significant increase
- solubility of pimobendan on addition of salts or disodium edetate (FIG. 2) ([3]; pH 4.5): does not significantly increase
- solubility of pimobendan with both HPMC and sodium sorbate (FIG. 3) ([3]; sodium sorbate 1.0% (m/V) and HPMC 0.1% (m/V), pH 4.5): significantly increased
- solubility of pimobendan in presence of sodium sorbate (FIG. 3) ([3]; sodium sorbate 1.0% (m/V), hydroxypropyl-ß-cyclodextrin, pH 4.5): significantly increases
SMILES: COc1ccc(-c2nc3ccc(C4=NNC(=O)CC4C)cc3[nH]2)cc1 (stereo not shown) [pimobendan, 4,5-dihydro-6-[2-(4-methoxyphenyl)-1H-benzimidazol-5-yl]-5-methyl-3(2H)-pyridazinone]
- solubility of pimobendan in aqueous solutions depending on pH [1]: significantly higher at pH 1 to 2.5 than at higher pH values
- solubility of pimobendan ([2]; pH 7): about 0.1 mg per 100 mL
- water in which 1 g drug substance is soluble ([2]; per 1 g drug substance, water): more than 10,000 mL
- solubility of pimobendan as a function of pH value (FIG. 1) ([3]; 25% (m/V) cyclodextrin, pH 3.5, 4.5, 5.5, 7, 9): highest solubility of pimobendan occurs at pH=3.5
- solubility of pimobendan as a function of preservative (FIG. 1) ([3]; 25% (m/V) cyclodextrin, versus reference control without preservative): highest pimobendan solubility is achieved with sodium sorbate
- solubility of pimobendan as a function of cyclodextrin type (FIG. 1) ([3]; 25% (m/V) hydroxypropyl-ß- or hydroxypropyl-gamma-cyclodextrin): more soluble with hydroxypropyl-ß-cyclodextrin than hydroxypropyl-gamma-cyclodextrin

SMILES: O=C1O[C@H]([C@@H](O)CO)C(O)=C1O [ascorbic acid]
- efficacy of preservation versus concentration of antioxidant [4]: increasing efficacy of preservation with increasing concentration of antioxidant

SMILES: C/C=C/C=C/C(=O)O [sorbic acid]
- antimicrobial efficacy (overall statement on Tables 6 and 7) [5]: good antimicrobial efficacy
